The values that follow come from article PMC6397177, “An uncharacterized FMAG_01619 protein from Fusobacterium mortiferum ATCC 9817 demonstrates that some bacterial macrodomains can also act as poly-ADP-ribosylhydrolases” (Scientific Reports, 2019).

As usually defined, the Ki is the dissociation constant of the complex between target and ligand, obtained from inhibition or displacement. A high value points to lower affinity.

Experiment [1] deals with T1, FmTARG1 (Fusobacterium mortiferum, UniProt A0ABN5JAQ3).
T1 construct: gene C4N19_10685; synthetic gene in pSol-AFV, AFV-tag removed with TEV protease; expressed in E. coli 10G
T1 sequence (A0ABN5JAQ3 2-142 limits assumed): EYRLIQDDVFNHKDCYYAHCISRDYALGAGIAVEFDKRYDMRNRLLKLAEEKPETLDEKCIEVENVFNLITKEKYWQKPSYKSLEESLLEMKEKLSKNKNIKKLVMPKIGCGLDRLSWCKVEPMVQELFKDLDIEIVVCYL
Description: thermal shift assay, SYPRO Orange. The following applies: 100 mM phosphate pH 7.0; ligand up to 50 mM. The experiment is classed as binding.

The next experiment concerns the target T2, hTARG1 (Homo sapiens, UniProt Q9Y530).
T2 construct: gene OARD1; synthetic gene in pET28a; E. coli Rosetta2(DE3); tag removal not clearly told
T2 sequence (Q9Y530 2-152): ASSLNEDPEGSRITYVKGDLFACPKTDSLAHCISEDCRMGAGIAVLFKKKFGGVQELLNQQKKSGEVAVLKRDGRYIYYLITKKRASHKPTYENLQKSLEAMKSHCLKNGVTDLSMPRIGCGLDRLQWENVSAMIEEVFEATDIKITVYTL
As to the kind of experiment: thermal shift assay, SYPRO Orange. The experiment is classed as binding. The following applies: 100 mM phosphate pH 7.0; ligand up to 50 mM.

Experiment [2] addresses T1, FmTARG1. Description: HPLC deacetylation assay. The experiment is classed as biochemical. To be noted: competitive against OAADPr; Bis-Tris pH 7.3, 300 mM NaCl, 25 °C.

Each structure is given as a SMILES string.

Consider `Nc1ncnc2c1ncn2[C@@H]1O[C@H](COP(=O)(O)OP(=O)(O)O)[C@@H](O)[C@H]1O` [ADP], for which the dTm result at FmTARG1 [1] was “AMP and ADP, also bind to both enzymes in a dose-dependent manner”; on hTARG1, “AMP and ADP, also bind to both enzymes in a dose-dependent manner”. In the case of `Nc1ncnc2c1ncn2[C@@H]1O[C@H](COP(=O)(O)O)[C@@H](O)[C@H]1O` [AMP], the dTm entry on FmTARG1 [1] was “AMP and ADP, also bind to both enzymes in a dose-dependent manner”; on hTARG1, “AMP and ADP, also bind to both enzymes in a dose-dependent manner”. On to `Nc1ncnc2c1ncn2[C@@H]1O[C@H](COP(=O)(O)OP(=O)(O)OC[C@H]2OC(O)[C@H](O)[C@@H]2O)[C@@H](O)[C@H]1O` (some centres unmarked) [ADPr], for which the Ki at FmTARG1 [2] was 203 ± 10 µM.
